Laboratory results reported in US20230165251A1, “SUBSTITUTED TOLYL FUNGICIDES AND THEIR MIXTURES” (FMC Corporation, priority 2020, published 2023).

Key:
[1] = tested on: Puccinia recondita f. sp. tritici; test: Test B: preventive spray on wheat seedlings, wheat leaf rust; assay type: in vivo; conditions: for pest or weed control at 10 ppm: Puccinia recondita, 192 h, read-out: Test B disease control rating
Text: (§1) General protocol for preparing test suspensions for Tests A-F: the test compounds were first dissolved in acetone in an amount equal to 3% of the final volume and then suspended at the desired concentration (in ppm) in acetone and purified water (50/50 mix by volume) containing 250 ppm of the surfactant PEG400 (polyhydric alcohol esters). The resulting test suspensions were then used in Tests A-F.
The test solution was sprayed to the point of run-off on wheat seedlings. The following day the seedlings were inoculated with a spore suspension of Puccinia recondita f. sp. tritici (the causal agent of wheat leaf rust) and incubated in a saturated atmosphere at 20° C. for 24 h, and then moved to a growth chamber at 20° C. for 7 days, after which time disease ratings were made.
(§2) A rating of 100 indicates 100% disease control and a rating of 0 indicates no disease control (relative to the controls). A dash (-) indicates the compound was not tested.

[2] = tested on: Phakopsora pachyrhizi; test: Test D: preventive spray on soybean seedlings, Asian soybean rust; assay type: in vivo; conditions: Rate 10 ppm; for pest or weed control at 10 ppm: Phakopsora pachyrhizi, 216 h, read-out: Test D disease control rating
Text: as §1
The test solution was sprayed to the point of run-off on soybean seedlings. The following day the seedlings were inoculated with a spore suspension of Phakopsora pachyrhizi (the causal agent of Asian soybean rust) and incubated in a saturated atmosphere at 22° C. for 24 h and then moved to a growth chamber at 22° C. for 8 days, after which time visual disease ratings were made.
as §2

Compound	pest or weed control at 10 ppm ([1]; Rate 10 ppm) [%]	pest or weed control at 10 ppm [2] [%]	Test B disease control rating ([1]; Rate 10 ppm) [%]	Test D disease control rating [2] [%]	Test B disease control rating ([1]; Rate 2 ppm) [%]
CO/N=C(\C)c1cc(F)c(-n2ccc(-c3ccc(C)c(CNC(=O)OC)c3)n2)c(F)c1 [Compound 83, methyl (E)-N-[[5-[1-[2,6-difluoro-4-[1-(methoxyimino)ethyl]phenyl]-1H-pyrazol-3-yl]-2-methylphenyl]methyl]carbamate]	100	100	–	–	–
COC(=O)NCc1cc(-c2ccn(-c3c(F)cc(C4CC4(F)F)cc3F)n2)ccc1C (centres unmarked) [Compound 89, methyl N-[[5-[1-[4-(2,2-difluorocyclopropyl)-2,6-difluorophenyl]-1H-pyrazol-3-yl]-2-methylphenyl]methyl]carbamate]	100	100	–	–	–
CO/N=C(/C)c1cc(F)c(-n2ccc(-c3ccc(C)c(CNC(=O)OC)c3)n2)c(F)c1 [Compound 99, methyl (Z)-N-[[5-[1-[2,6-difluoro-4-[1-(methoxyimino)ethyl]phenyl]-1H-pyrazol-3-yl]-2-methylphenyl]methyl]carbamate]	100	100	–	–	–
COC(=O)NCc1cc(-c2ccn(-c3c(F)cc(C4OCCCO4)cc3F)n2)ccc1C [Compound 134]	–	–	89	100	–
CCC(C)c1cc(F)c(-n2ncc(-c3ccc(C)c(CNC(=O)OC)c3)n2)c(F)c1 (centres unmarked) [Compound 139, methyl N-[[5-[2-[2,6-difluoro-4-(1-methylpropyl)phenyl]-2H-1,2,3-triazol-4-yl]-2-methylphenyl]methyl]carbamate]	99	100	–	–	–
COC(=O)NNc1cc(-c2ccn(-c3c(F)cccc3F)n2)ccc1C [Compound 154]	0	25	–	–	–
COC(=O)NNc1cc(-c2ccn(-c3c(F)cc(C(C)C)cc3F)n2)ccc1C [Compound 155]	91	100	–	–	–
COC(=O)NNc1cc(-c2ccn(-c3c(F)cc(C(F)(F)F)cc3F)n2)ccc1C [Compound 156]	85	54	–	–	–
COC(=O)NCc1cc(-c2ccn(-c3c(F)cc(OCC(F)(F)F)cc3F)n2)ccc1C [compound 22]	–	–	99	100	–
COC(=O)NCc1cc(-c2ccn(-c3c(F)cc(I)cc3SC)n2)ccc1C [compound 26]	–	–	73	87	–
COC(=O)NCc1cc(-c2ccn(-c3c(F)cc(SC)cc3F)n2)ccc1C [compound 27]	–	–	99	100	–
COC(=O)NCc1cc(-c2ccn(-c3c(F)cc(SC)cc3SC)n2)ccc1C [compound 28]	–	–	0	100	–
COC(=O)NCc1cc(-c2ccn(-c3c(F)cc(OC)cc3OC)n2)ccc1C [compound 34]	–	–	28	96	–
COC(=O)NCc1cc(-c2ccn(-c3c(C)cc([N+](=O)[O-])cc3C)n2)ccc1C [compound 35]	–	–	0	0	–
CNc1cc(F)c(-n2ccc(-c3ccc(C)c(CNC(=O)OC)c3)n2)c(F)c1 [compound 36]	–	–	68	100	–
COC(=O)NCc1cc(-c2ccn(-c3c(F)cc([N+](=O)[O-])cc3Cl)n2)ccc1C [compound 37]	–	–	26	0	–
COC(=O)NCc1cc(-c2ccn(-c3c(C)cc(N)cc3C)n2)ccc1C [compound 38]	–	–	0	0	–
COC(=O)NCc1cc(-c2ccn(-c3c(F)cc(N)cc3Cl)n2)ccc1C [compound 39]	–	–	0	0	–
COC(=O)NCc1cc(-c2ccn(-c3c(C)cc(OC)cc3C)n2)ccc1C [compound 40]	–	–	0	99	–
COC(=O)NCc1cc(-c2ccn(-c3c(Cl)cccc3Cl)n2)ccc1C [compound 44]	–	–	68	100	–
COC(=O)NCc1cc(-c2ccn(-c3c(F)cccc3I)n2)ccc1C [compound 45]	–	–	0	100	–
COC(=O)NCc1cc(-c2ccn(-c3c(F)cccc3Br)n2)ccc1C [compound 46]	–	–	68	100	–

Compound	pest or weed control at 10 ppm ([1]; Rate 10 ppm) [%]	pest or weed control at 10 ppm [2] [%]	Test B disease control rating ([1]; Rate 10 ppm) [%]	Test D disease control rating [2] [%]	Test B disease control rating ([1]; Rate 2 ppm) [%]
COC(=O)NCc1cc(-c2ccn(-c3c(F)cccc3Cl)n2)ccc1C [compound 47]	–	–	74	100	–
COC(=O)NCc1cc(-c2ccn(-c3c(C)cc(Br)cc3C)n2)ccc1C [compound 48]	–	–	68	99	–
COC(=O)NCc1cc(-c2ccn(-c3c(C)cc(Cl)cc3C)n2)ccc1C [compound 49]	–	–	68	99	–
COC(=O)NCc1cc(-c2ccn(-c3c(F)cc(Br)cc3Cl)n2)ccc1C [compound 50]	–	–	100	100	–
COC(=O)NCc1cc(-c2ccn(-c3c(F)cc(Cl)cc3Cl)n2)ccc1C [compound 51]	–	–	100	100	–
COC(=O)NCc1cc(-c2ccn(-c3c(Br)cccc3I)n2)ccc1C [compound 52]	–	–	0	99	–
COC(=O)NCc1cc(-c2ccn(-c3c(Cl)cc([N+](=O)[O-])cc3Cl)n2)ccc1C [compound 54]	–	–	0	0	–
COC(=O)NCc1cc(-c2ccn(-c3c(Cl)cc(N)cc3Cl)n2)ccc1C [compound 55]	–	–	0	0	–
COC(=O)NCc1cc(-c2ccn(-c3c(Cl)cc(Br)cc3Cl)n2)ccc1C [compound 56]	–	–	80	100	–
COC(=O)NCc1cc(-c2ccn(-c3c(Cl)cc(Cl)cc3Cl)n2)ccc1C [compound 57]	–	–	74	100	–
COC(=O)NCc1cc(-c2ccn(-c3c(Br)cccc3Br)n2)ccc1C [compound 58]	–	–	68	100	–
COC(=O)NCc1cc(-c2ccn(-c3c(Cl)cccc3I)n2)ccc1C [compound 59]	–	–	45	87	–
COC(=O)NCc1cc(-c2ccn(-c3c(Cl)cccc3Br)n2)ccc1C [compound 60]	–	–	68	100	–
COC(=O)NCc1cc(-c2ccn(-c3c(C)cccc3Br)n2)ccc1C [compound 61]	–	–	68	97	–
COC(=O)NCc1cc(-c2ccn(-c3c(F)cc(OCF)cc3F)n2)ccc1C [compound 73]	–	–	100	100	–
COC(=O)NCc1cc(-c2ccn(-c3c(F)cc(C4(C)CC4)cc3F)n2)ccc1C [compound 74]	–	–	100	100	–
COC(=O)NCc1cc(-c2ccn(-c3c(F)cc(CF)cc3F)n2)ccc1C [compound 77]	–	–	100	100	–
COC(=O)NCc1cc(-c2cn(-c3c(F)cc(C)cc3F)nn2)ccc1C [compound 119]	–	–	100	0	–
methyl N-[[5-[1-[2,6-dichloro-4-(1,1-dimethylethyl)phenyl]-1H-pyrazol-3-yl]-2-methylphenyl]methyl]carbamate [Compound 135]	–	–	86	–	–
methyl N-[[5-[1-[2,6-difluoro-4-(2-propyn-1-yloxy)phenyl]-1H-pyrazol-3-yl]-2-methylphenyl]methyl]carbamate [Compound 30]	–	–	98	–	–
methyl N-[[5-[2-[2,6-difluoro-4-(1-methylethyl)phenyl]-2H-1,2,3-triazol-4-yl]-2-methylphenyl]methyl]carbamate [Compound 108]	–	–	–	–	100
